Patent US12540131B2 (Merck Sharp & Dohme LLC, priority 2019, dated 2026)

What follows are compounds tested against GST tagged truncated human mutant G2019S LRRK2 (Homo sapiens (Human), UniProt Q5S007, G2019S) (assay: LRRK2 Km ATP LanthaScreen Assay). Conditions: G2019S LRRK2, 134 μM ATP (Km ATP), mean values.
Sequence of GST tagged truncated human mutant G2019S LRRK2 (Q5S007 970-2527 G2019S): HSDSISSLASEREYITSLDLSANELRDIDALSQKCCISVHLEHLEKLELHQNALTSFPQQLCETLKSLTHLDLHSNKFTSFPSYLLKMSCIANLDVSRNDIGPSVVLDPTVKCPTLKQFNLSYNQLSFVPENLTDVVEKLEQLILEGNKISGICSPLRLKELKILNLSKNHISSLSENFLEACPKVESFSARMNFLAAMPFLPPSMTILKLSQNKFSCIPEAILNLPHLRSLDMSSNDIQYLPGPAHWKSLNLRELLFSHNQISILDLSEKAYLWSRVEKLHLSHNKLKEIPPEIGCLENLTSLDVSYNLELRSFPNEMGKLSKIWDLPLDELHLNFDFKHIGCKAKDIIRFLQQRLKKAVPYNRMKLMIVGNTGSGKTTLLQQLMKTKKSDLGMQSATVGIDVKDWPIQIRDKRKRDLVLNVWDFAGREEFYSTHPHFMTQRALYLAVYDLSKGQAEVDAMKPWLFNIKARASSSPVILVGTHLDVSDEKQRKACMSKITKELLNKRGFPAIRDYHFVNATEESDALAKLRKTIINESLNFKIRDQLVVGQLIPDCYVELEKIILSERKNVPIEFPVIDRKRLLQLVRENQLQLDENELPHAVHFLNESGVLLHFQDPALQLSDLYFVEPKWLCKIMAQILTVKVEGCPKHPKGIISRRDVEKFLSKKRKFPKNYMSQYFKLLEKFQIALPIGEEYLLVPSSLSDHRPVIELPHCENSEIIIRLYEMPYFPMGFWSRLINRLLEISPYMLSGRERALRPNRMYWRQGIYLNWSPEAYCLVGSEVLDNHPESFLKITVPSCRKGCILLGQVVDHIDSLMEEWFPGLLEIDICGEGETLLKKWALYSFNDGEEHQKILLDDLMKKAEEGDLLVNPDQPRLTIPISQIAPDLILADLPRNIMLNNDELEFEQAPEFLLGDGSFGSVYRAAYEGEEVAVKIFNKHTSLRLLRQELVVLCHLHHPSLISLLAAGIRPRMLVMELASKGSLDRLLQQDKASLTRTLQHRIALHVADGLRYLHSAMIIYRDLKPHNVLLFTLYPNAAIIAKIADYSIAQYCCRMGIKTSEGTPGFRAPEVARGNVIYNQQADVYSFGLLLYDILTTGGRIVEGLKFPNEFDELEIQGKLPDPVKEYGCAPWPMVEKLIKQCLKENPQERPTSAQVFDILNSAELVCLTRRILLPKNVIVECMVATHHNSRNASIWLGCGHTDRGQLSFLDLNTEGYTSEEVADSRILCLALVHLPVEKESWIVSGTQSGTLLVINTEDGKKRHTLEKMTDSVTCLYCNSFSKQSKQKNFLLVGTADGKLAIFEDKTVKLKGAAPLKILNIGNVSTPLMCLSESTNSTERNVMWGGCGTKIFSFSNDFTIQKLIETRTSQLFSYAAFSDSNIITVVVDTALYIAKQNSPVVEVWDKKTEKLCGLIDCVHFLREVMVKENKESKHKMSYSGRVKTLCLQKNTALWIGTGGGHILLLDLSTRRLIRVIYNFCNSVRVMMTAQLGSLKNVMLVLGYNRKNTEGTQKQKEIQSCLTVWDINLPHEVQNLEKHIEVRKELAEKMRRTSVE
Format: biochemical
Summary of the method: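 Enzyme (GST-tagged, truncated) was preincubated with compound for 15 min at RT in 50 mM Tris pH 8.5, 10 mM MgCl2, 0.01% Brij-35, 1 mM EGTA, 2 mM DTT and 0.05 mM orthovanadate. Fluorescein-LRRKtide and 134 μM ATP (Km) were then added for 90 min. EDTA and Tb-anti-pERM antibody stopped the reaction; the TR-FRET 520/495 ratio gave 4-parameter IC50s, reported as mean pIC50.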
`O[C@@H]1COC[C@@H]1N1CCC(c2cc3nc(Nc4cnn(C5CC5)c4Cl)ncc3cc2Cl)CC1` (single isomer, unassigned) [Ex-4.105, (3S,4S) or (3R,4R) 4-(4-(6-chloro-2-((5-chloro-1-cyclopropyl-1H-pyrazol-4-yl)amino)quinazolin-7-yl)piperidin-1-yl)tetrahydrofuran-3-ol] was tested, and the “LRRK2 pIC50” value was 8.51.
In the case of `CC1CC(c2cc3nc(Nc4cnn(C5CC5)c4Cl)ncc3cc2Cl)CCN1C1COC1` (single isomer, unassigned) [Ex-4.106, (2S,4S) or (2R,4R) or (2S,4R) or (2R,4S) 6-chloro-N-(5-chloro-1-cyclopropyl-1H-pyrazol-4-yl)-7-(2-methyl-1-(oxetan-3-yl)piperidin-4-yl)quinazolin-2-amine], the “LRRK2 pIC50” value is reported as greater than 9.20.
In the case of `CC1CC(c2cc3nc(Nc4cnn(C5CC5)c4Cl)ncc3cc2Cl)CCN1C1COC1` (single isomer, unassigned) [Ex-4.107, (2S,4S) or (2R,4R) or (2S,4R) or (2R,4S) 6-chloro-N-(5-chloro-1-cyclopropyl-1H-pyrazol-4-yl)-7-(2-methyl-1-(oxetan-3-yl)piperidin-4-yl)quinazolin-2-amine], the “LRRK2 pIC50” value is reported as 8.52.
`N#CC1CCC(N2CC[C@@H](c3cc4nc(Nc5cnn(C6CC6)c5Cl)ncc4cc3Cl)[C@H](F)C2)C1` (single isomer, unassigned) [Ex-4.108, (1R,3S)-3-((3S,4S) or (1S,3R)-3-((3S,4S) or (1R,3R)-3-((3S,4S) or (1S,3S)-3-((3S,4S) or (1R,3S)-3-((3R,4R) or (1S,3R)-3-((3R,4R) or (1R,3R)-3-((3R,4R) or 1S,3S)-3-((3R,4R) 4-(6-chloro-2-((5-chloro-1-cyclopropyl-1H-pyrazol-4-yl)amino)quinazolin-7-yl)-3-fluoropiperidin-1-yl)cyclopentane-1-carbonitrile] was tested, and the “LRRK2 pIC50” value was 8.49.
`N#CC1CCC(N2CC[C@@H](c3cc4nc(Nc5cnn(C6CC6)c5Cl)ncc4cc3Cl)[C@H](F)C2)C1` (single isomer, unassigned) [Ex-4.109, (1R,3S)-3-((3S,4S) or (1S,3R)-3-((3S,4S) or (1R,3R)-3-((3S,4S) or (1S,3S)-3-((3S,4S) or (1R,3S)-3-((3R,4R) or (1S,3R)-3-((3R,4R) or (1R,3R)-3-((3R,4R) or 1S,3S)-3-((3R,4R) 4-(6-chloro-2-((5-chloro-1-cyclopropyl-1H-pyrazol-4-yl)amino)quinazolin-7-yl)-3-fluoropiperidin-1-yl)cyclopentane-1-carbonitrile] was tested, and the “LRRK2 pIC50” value was 7.99.
With `N#CC1CCC(N2CC[C@@H](c3cc4nc(Nc5cnn(C6CC6)c5Cl)ncc4cc3Cl)[C@H](F)C2)C1` (single isomer, unassigned) [Ex-4.110, (1R,3S)-3-((3S,4S) or (1S,3R)-3-((3S,4S) or (1R,3R)-3-((3S,4S) or (1S,3S)-3-((3S,4S) or (1R,3S)-3-((3R,4R) or (1S,3R)-3-((3R,4R) or (1R,3R)-3-((3R,4R) or 1S,3S)-3-((3R,4R) 4-(6-chloro-2-((5-chloro-1-cyclopropyl-1H-pyrazol-4-yl)amino)quinazolin-7-yl)-3-fluoropiperidin-1-yl)cyclopentane-1-carbonitrile] the “LRRK2 pIC50” value was 8.73.
`N#CC1CCC(N2CC[C@@H](c3cc4nc(Nc5cnn(C6CC6)c5Cl)ncc4cc3Cl)[C@H](F)C2)C1` (single isomer, unassigned) [Ex-4.111, (1R,3S)-3-((3S,4S) or (1S,3R)-3-((3S,4S) or (1R,3R)-3-((3S,4S) or (1S,3S)-3-((3S,4S) or (1R,3S)-3-((3R,4R) or (1S,3R)-3-((3R,4R) or (1R,3R)-3-((3R,4R) or 1S,3S)-3-((3R,4R) 4-(6-chloro-2-((5-chloro-1-cyclopropyl-1H-pyrazol-4-yl)amino)quinazolin-7-yl)-3-fluoropiperidin-1-yl)cyclopentane-1-carbonitrile] was tested, and the “LRRK2 pIC50” value was 8.55.
`Cc1nsc(Nc2ncc3cc(Cl)c([C@@H]4CCN(C5COC[C@@H]5O)C[C@H]4F)cc3n2)c1Cl` (single isomer, unassigned) [Ex-4.120, (3S,4S)(3S,4S) or (3S,4S)(3R,4R) or (3R,4R)(3S,4S) or (3R,4R)(3R,4R) 4-{6-chloro-2-[(4-chloro-3-methyl-1,2-thiazol-5-yl)amino]quinazolin-7-yl}-3-fluoropiperidin-1-yl]oxolan-3-ol] was tested, and the “LRRK2 pIC50” value was 7.65.
For `Cc1nsc(Nc2ncc3cc(Cl)c([C@@H]4CCN(C5COC[C@H]5O)C[C@H]4F)cc3n2)c1Cl` (single isomer, unassigned) [Ex-4.121, (3S,4S)(3S,4S) or (3S,4S)(3R,4R) or (3R,4R)(3S,4S) or (3R,4R)(3R,4R) 4-{6-chloro-2-[(4-chloro-3-methyl-1,2-thiazol-5-yl)amino]quinazolin-7-yl}-3-fluoropiperidin-1-yl]oxolan-3-ol], the “LRRK2 pIC50” value was 8.92.
With `O[C@H]1COCC1N1CC[C@@H](c2cc3nc(Nc4cnn(C5CC5)c4Cl)ncc3cc2Cl)[C@H](F)C1` (single isomer, unassigned) [Ex-4.122, (3S,4S)(3S,4S) or (3S,4S)(3R,4R) or (3R,4R)(3S,4S) or (3R,4R)(3R,4R) 4-{6-chloro-2-[(5-chloro-1-cyclopropyl-1H-pyrazol-4-yl)amino]quinazolin-7-yl}-3-fluoropiperidin-1-yl]oxolan-3-ol] the “LRRK2 pIC50” value was greater than 9.20.
`O[C@@H]1COCC1N1CC[C@@H](c2cc3nc(Nc4cnn(C5CC5)c4Cl)ncc3cc2Cl)[C@H](F)C1` (single isomer, unassigned) [Ex-4.123, (3S,4S)(3S,4S) or (3S,4S)(3R,4R) or (3R,4R)(3S,4S) or (3R,4R)(3R,4R) 4-{6-chloro-2-[(5-chloro-1-cyclopropyl-1H-pyrazol-4-yl)amino]quinazolin-7-yl}-3-fluoropiperidin-1-yl]oxolan-3-ol] was tested, and the “LRRK2 pIC50” value was 8.37.
`O=S1(=O)CC(N2CC[C@@H](c3cc4nc(Nc5cnn(C6CC6(F)F)c5Cl)ncc4cc3Cl)[C@H](F)C2)C1` (single isomer, unassigned) [Ex-4.124, (S)(3S,4S) or (S)(3R,4R) or (R)(3S,4S) or (R)(3R,4R) 3-[4-(6-chloro-2-{[5-chloro-1-(2,2-difluorocyclopropyl)-1H-pyrazol-4-yl]amino}quinazolin-7-yl)-3-fluoropiperidin-1-yl]thietane 1,1-dioxide] was tested, and the “LRRK2 pIC50” value was 8.91.
For `O[C@@H]1COCC1N1CC[C@H](c2cc3nc(Nc4cnn(C5CC5(F)F)c4Cl)ncc3cc2Cl)[C@@H](F)C1` (single isomer, unassigned) [Ex-4.125, (R)(3S,4S)(3S,4S) or (R)(3S,4S)(3R,4R) or (R)(3R,4R)(3S,4S) or (R)(3R,4R)(3R,4R) or (S)(3S,4S)(3S,4S) or (S)(3S,4S)(3R,4R) or (S)(3R,4R)(3S,4S) or (S)(3R,4R)(3R,4R) 4-(6-chloro-2-{[5-chloro-1-(2,2-difluorocyclopropyl)-1H-pyrazol-4-yl]amino}quinazolin-7-yl)-3-fluoropiperidin-1-yl]oxolan-3-ol], the “LRRK2 pIC50” value was 8.16.
`Cc1c(Nc2ncc3cc(Cl)c(C4C[C@H]5C[C@@H]4CN5C4COC4)cc3n2)cnn1C1CC1` (single isomer, unassigned) [Ex-4.126, (1S,4S) or (1R,4R) 6-chloro-N-(1-cyclopropyl-5-methyl-1H-pyrazol-4-yl)-7-[2-(oxetan-3-yl)-2-azabicyclo[2.2.1]heptan-5-yl]quinazolin-2-amine] was tested, and the “LRRK2 pIC50” value was 7.64.
In the case of `Cc1c(Nc2ncc3cc(Cl)c([C@@H]4CCN(C5COC[C@@H]5O)C[C@H]4F)cc3n2)cnn1C1CC1` (single isomer, unassigned) [Ex-4.127, (3S,4S)(3S,4S) or (3S,4S)(3R,4R) or (3R,4R)(3S,4S) or (3R,4R)(3R,4R) 4-[4-{6-chloro-2-[(1-cyclopropyl-5-methyl-1H-pyrazol-4-yl)amino]quinazolin-7-yl}-3-fluoropiperidin-1-yl]oxolan-3-ol], the “LRRK2 pIC50” value is reported as greater than 9.20.

Same assay, conditions: G2019S LRRK2, 134 μM ATP (Km ATP), mean values; read-out: LRRK2 pIC50 (converted)
With `Clc1cc2cnc(Nc3cnn(C4CC4)c3Cl)nc2cc1C1CCN(C2COC3(CCC3)C2)CC1` (single isomer, unassigned) [Ex-4.114, (R) or (S) 7-(1-(5-oxaspiro[3.4]octan-7-yl)piperidin-4-yl)-6-chloro-N-(5-chloro-1-cyclopropyl-1H-pyrazol-4-yl)quinazolin-2-amine] the IC50 was 10 nM.
`Clc1cc2cnc(Nc3cnn(C4CC4)c3Cl)nc2cc1C1CCN(C2COC3(CCC3)C2)CC1` (single isomer, unassigned) [Ex-4.115, (R) or (S) 7-(1-(5-oxaspiro[3.4]octan-7-yl)piperidin-4-yl)-6-chloro-N-(5-chloro-1-cyclopropyl-1H-pyrazol-4-yl)quinazolin-2-amine] was tested, and the IC50 was 0.851 nM.
With `CC1(C)CC(N2CCC(c3cc4nc(Nc5cnn(C6CC6)c5Cl)ncc4cc3Cl)CC2)CO1` (single isomer, unassigned) [Ex-4.116, (R) or (S) 6-chloro-N-(5-chloro-1-cyclopropyl-1H-pyrazol-4-yl)-7-(1-(5,5-dimethyltetrahydrofuran-3-yl)piperidin-4-yl)quinazolin-2-amine] the IC50 was 4.47 nM.
In the case of `CC1(C)CC(N2CCC(c3cc4nc(Nc5cnn(C6CC6)c5Cl)ncc4cc3Cl)CC2)CO1` (single isomer, unassigned) [Ex-4.117, (R) or (S) 6-chloro-N-(5-chloro-1-cyclopropyl-1H-pyrazol-4-yl)-7-(1-(5,5-dimethyltetrahydrofuran-3-yl)piperidin-4-yl)quinazolin-2-amine], the IC50 is reported as less than 0.631 nM.
